This is an account of results in patent US5688787A, “Substituted β-lactam compounds useful as hypochlesterolemic agents and processes for the preparation thereof” (priority 1996, dated 1997).

The structures appear in SMILES notation. Read-outs that look alike come from different tables or passages of the source.

Assay [1] has as its target T1, ACAT (Rattus norvegicus, UniProt Q7TQM4).
T1 construct: Rat liver microsomes are used as the source of ACAT; from tissue; host or cells: rat liver microsomes
T1 sequence (Q7TQM4 1-524): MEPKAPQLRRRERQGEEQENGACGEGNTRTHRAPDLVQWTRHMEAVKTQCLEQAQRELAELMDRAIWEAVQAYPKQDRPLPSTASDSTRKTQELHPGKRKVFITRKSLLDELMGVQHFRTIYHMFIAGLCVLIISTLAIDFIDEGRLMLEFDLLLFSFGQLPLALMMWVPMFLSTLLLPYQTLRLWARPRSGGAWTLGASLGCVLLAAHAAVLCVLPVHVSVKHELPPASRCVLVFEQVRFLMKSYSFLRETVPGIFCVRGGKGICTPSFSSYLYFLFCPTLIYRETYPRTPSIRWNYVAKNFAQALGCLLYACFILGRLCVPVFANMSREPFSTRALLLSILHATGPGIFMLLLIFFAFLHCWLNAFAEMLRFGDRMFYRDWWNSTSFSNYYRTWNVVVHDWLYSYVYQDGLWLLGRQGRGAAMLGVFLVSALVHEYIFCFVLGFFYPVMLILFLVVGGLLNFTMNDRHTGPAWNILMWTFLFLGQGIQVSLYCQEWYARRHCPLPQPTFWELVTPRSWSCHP
Briefly: ACAT Assay (in vitro). Format: biochemical. The settings on record: for inhibition at 10 µM: Conc. 10 µM.
Description: This assay measures the activity of ACAT by measuring the ACAT-mediated transfer of tritiated oleic acid from acyl-CoA to cholesterol to give labelled cholesteryl oleate. Rat liver microsomes are used as the source of ACAT. Assays are performed in round bottom microtiterplates using a total incubation volume of 50 μL. […] The microtiterplate is then floated on the surface of a 37° C. water bath for fifteen minutes. Incubations are started by the addition of 3 μL ^3 H-acyl CoA (1 μCi/well, final concentration of 10 μM acyl CoA). The plate is then returned to the water bath for 15 minutes. The incubations are then terminated by application of 15 μL from each incubation to individual lanes on a thin layer plate (Silica Gel GF 20×20 cm). Standards are applied to several lanes so that the cholesteryl ester band can be identified. After drying, the plates am eluted with 90:10:1 petroleum ether:diethyl ether:acetic acid. The standards am visualized via iodine vapor, and the regions corresponding to cholesteryl ester are scraped into 7 mL scintillation vials. 4 mL of scintillant are added to each vial, and the radioactivity quantified. Background count is determined by the boiled controls. Full activity is determined by activity in the presence of vehicle. The percent inhibition is calculated by subtracting the background from both control and test samples, and the test value is calculated as a percentage of the control.
For the in vitro ACAT data, negative percent inhibition denotes apparent stimulation,while positive numbers denote inhibition.

The test system of assay [2] is Hyperlipidemic Hamster. Briefly: In Vivo Assay of Hypolipidemic Agents Using the Hyperlipidemic Hamster. To be noted: Mesocricetus auratus, po, 168 h, 7 days, percent change versus control, negative = lowering; for change in vivo at 50 mg/kg: 50 mg/kg once daily oral; for change in vivo at 5 mg/kg: 5 mg/kg once daily oral; for change in vivo at 10 mg/kg: 10 mg/kg once daily oral; for change in vivo at 100 mg/kg: 100 mg/kg once daily oral; for change in vivo at 25 mg/kg: 25 mg/kg once daily oral. In outline: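 Test compound in corn oil was given orally once daily for seven days, starting with a 0.5% cholesterol diet, to groups of six hamsters; corn oil alone served as control. Plasma and hepatic lipids were analysed after decapitation. Results are expressed as percent change relative to control.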

Where [3] appears, read: negative = apparent stimulation, read-out: ACAT (in vitro) % Inhib.
Setting [4] is: read-out: % Reduction (in vivo) Cholest. Esters.
[5] abbreviates: read-out: % Reduction (in vivo) Serum Cholest.
Where [6] appears, read: rat liver microsomes, read-out: ACAT (in vitro) IC50.

In the case of `CC[C@@]1(c2ccccc2)C(=O)N(c2ccc(OC)cc2)[C@H]1c1ccccc1` (relative stereo) [Example 1Z], the inhibition at 10 µM in assay [1] (setting [3]) is -15%. For the same compound, the change in vivo at 50 mg/kg is -39% in assay [2] (setting [4]) and -15% in assay [2] (setting [5]).
Consider `COc1ccc(N2C(=O)[C@H](CCCc3ccccc3)[C@@H]2c2ccc([N+](=O)[O-])cc2)cc1` (relative stereo) [Example 1H], for which the inhibition at 10 µM in assay [1] (setting [3]) came to 57%. The change in vivo at 50 mg/kg in assay [2] (setting [4]) is -51%; in assay [2] (setting [5]), -21%.
The matching figures for `COc1ccc(N2C(=O)[C@H](CCCc3ccccc3)[C@@H]2c2ccc(C)cc2)cc1` (relative stereo) [Example 1BM]: 38%, -21% and 0%.
Take `COc1ccc(N2C(=O)[C@H](CCCc3ccccc3)[C@@H]2c2ccc(SC)cc2)cc1` (relative stereo) [Example 1AU]: in assay [1] (setting [3]), the inhibition at 10 µM turned out to be 44%. Also, the change in vivo at 50 mg/kg in assay [2] (setting [4]) is -21%; in assay [2] (setting [5]), 0%.
As for `COc1ccc(N2C(=O)[C@@H](CCCc3ccccc3)[C@H]2c2ccc(O)cc2)cc1` (relative stereo) [Example 1L], the inhibition at 10 µM in assay [1] (setting [3]) stood at 20%. Besides, in assay [2] (setting [4]), the change in vivo at 5 mg/kg was -30%, the change in vivo at 10 mg/kg was -34% and the change in vivo at 50 mg/kg was -75%. For the same compound, in assay [2] (setting [5]), the change in vivo at 5 mg/kg was -25%, the change in vivo at 10 mg/kg is -22% and the change in vivo at 50 mg/kg was -31%.
On to `COc1ccc(N2C(=O)[C@@H](CCCc3ccccc3)[C@H]2c2ccc(N)cc2)cc1` (relative stereo) [Example 8B], for which the inhibition at 10 µM in assay [1] (setting [3]) is -5%. The results for the change in vivo at 50 mg/kg in assay [2] (setting [4]) and in assay [2] (setting [5]) were -35% and -9%, respectively.
`COc1ccc(N2C(=O)[C@](C(=O)Cc3ccccc3)(c3ccccc3)[C@@H]2c2ccccc2)cc1` (relative stereo) [Example 1A]: in assay [1] (Conc. 25 µM, negative = apparent stimulation, read-out: ACAT (in vitro) % Inhib.), the inhibition at 25 µM was 83%. The change in vivo at 100 mg/kg in assay [2] (setting [4]) is -26%; in assay [2] (setting [5]), -10%.
With `COc1ccc([C@@H]2N(c3ccc(OC)cc3)C(=O)[C@]2(Cc2ccccc2)c2ccccc2)cc1` (relative stereo) [Example 7AF], the inhibition at 10 µM in assay [1] (setting [3]) worked out at 53%. Besides, the change in vivo at 50 mg/kg in assay [2] (setting [4]) is -15%; in assay [2] (setting [5]) it was 23%.
The matching figures for `CC[C@]1(CCCc2ccccc2)C(=O)N(c2ccc(OC)cc2)[C@H]1c1ccccc1` (relative stereo) [Example 3E]: -24%, 0% and 0%.
In the case of `CC[C@@]1(CCCc2ccccc2)C(=O)N(c2ccc(OC)cc2)[C@H]1CCc1ccccc1` (relative stereo) [Example 6], the inhibition at 10 µM in assay [1] (setting [3]) worked out at 59%. In addition, in assay [1] (setting [6]), the 50% inhibitory concentration (IC50) came out at 5 µM. Also, the change in vivo at 50 mg/kg in assay [2] (setting [4]) amounted to 0%; in assay [2] (setting [5]), 14%.
Take `CCCCCCCCCC[C@]1(CCCc2ccccc2)C(=O)N(c2ccc(OC)cc2)[C@@H]1c1ccccc1` (relative stereo) [Example 3U]: the inhibition at 10 µM in assay [1] (setting [3]) was 46%. Besides, the change in vivo at 50 mg/kg in assay [2] (setting [4]) and in assay [2] (setting [5]) was 0% in each case.
Take `COc1ccc(N2C(=O)[C@H](CCCc3ccccc3)[C@H]2c2ccc(N)cc2)cc1` (relative stereo) [Example 8C]: the inhibition at 10 µM in assay [1] (setting [3]) was 63%. The change in vivo at 50 mg/kg in assay [2] (setting [4]) and in assay [2] (setting [5]) was 0% each time.
For the compound `COc1ccc(N2C(=O)[C@@H](CCCc3ccccc3)[C@@H]2C=Cc2ccccc2)cc1` (relative stereo) [Example 1K], in assay [1] (setting [3]), the inhibition at 10 µM is -70%. Also, the change in vivo at 50 mg/kg in assay [2] (setting [4]) and in assay [2] (setting [5]) was 0% each time.
`CCCCCCCCCCC1C(=O)N(c2c(OC)cc(OC)cc2OC)C1c1ccccc1` (stereo not drawn) [Example 1U]: in assay [1] (setting [3]), the inhibition at 10 µM is 58%. The IC50 in assay [1] (setting [6]) amounted to 19 µM. Further, the change in vivo at 50 mg/kg in assay [2] (setting [4]) and in assay [2] (setting [5]) was 0% in each case.
In the case of `COc1ccc(N2C(=O)[C@@H](CCCc3ccccc3)[C@H]2c2ccc(C=O)cc2)cc1` (relative stereo) [Example 16], in assay [1] (setting [3]), the inhibition at 10 µM amounted to 42%. Besides, the change in vivo at 50 mg/kg is -29% in assay [2] (setting [4]) and -25% in assay [2] (setting [5]).
The matching figures for `COc1ccc(N2C(=O)[C@H](CCCc3ccccc3)[C@@H]2c2ccc(CN3CCN(C)CC3)cc2)cc1` (relative stereo) [Example 19B]: 53%, -31% and -26%.
With `COc1ccc(N2C(=O)[C@H](CCCc3ccccc3)[C@@H]2c2ccoc2)cc1` (relative stereo) [Example 1BE], in assay [1] (setting [3]), the inhibition at 10 µM stood at 30%. The change in vivo at 50 mg/kg is -21% in assay [2] (setting [4]) and -10% in assay [2] (setting [5]).
As to `COc1ccc([C@@H]2[C@@H](CCCc3ccccc3)C(=O)N2c2ccc(O)cc2)cc1` (relative stereo) [Example 10A], the inhibition at 10 µM in assay [1] (setting [3]) was -37%. For the same compound, the values for the change in vivo at 50 mg/kg in assay [2] (setting [4]) and in assay [2] (setting [5]) were -58% and -19%, respectively.
For the compound `COc1ccc(N2C(=O)[C@H](CCCc3ccccc3)[C@@H]2c2ccc(CO[Si](C)(C)C(C)(C)C)cc2)cc1` (relative stereo) [Example 1AT], in assay [1], inhibition was half-maximal at 5 µM (IC50). Also, the inhibition at 10 µM in assay [1] (setting [3]) came out at 70%. The change in vivo at 50 mg/kg in assay [2] (setting [4]) was -28%; in assay [2] (setting [5]) it was 0%.
In the case of `CCCCCCCCCC[C@@]1(CC)C(=O)N(c2c(OC)cc(OC)cc2OC)[C@@H]1c1ccccc1` (relative stereo) [Example 3W], the inhibition at 10 µM in assay [1] (setting [3]) is 56%. The change in vivo at 50 mg/kg in assay [2] (setting [4]) and in assay [2] (setting [5]) was 0% throughout.
Take `CCOc1ccc([C@H]2[C@@H](CCCc3ccccc3)C(=O)N2c2ccc(OC)cc2)cc1` (relative stereo) [Example 1BO]: the inhibition at 10 µM in assay [1] (setting [3]) came out at 79%. Also, the half-inhibitory concentration (IC50) in assay [1] (setting [6]) was 5.4 µM. Further, the change in vivo at 50 mg/kg was -93% in assay [2] (setting [4]) and -48% in assay [2] (setting [5]).
Consider `CCCCCCCCCC[C@@H]1C(=O)N(c2ccc(OC)cc2)[C@H]1c1ccccc1` (relative stereo) [Example 1T], for which, in assay [1] (setting [3]), the inhibition at 10 µM is -11%. Also, the change in vivo at 50 mg/kg in assay [2] (setting [4]) and in assay [2] (setting [5]) was 0% in each case.
With `COc1ccc(N2C(=O)[C@@](C)(CCCc3ccccc3)[C@@H]2c2ccccc2)cc1` (relative stereo) [Example 3J], in assay [1] (setting [3]), the inhibition at 10 µM stood at 45%. Moreover, the change in vivo at 50 mg/kg in assay [2] (setting [4]) is -16%; in assay [2] (setting [5]) it was 0%.
The matching figures for `CC[C@]1(CCCc2ccccc2)C(=O)N(c2c(OC)cc(OC)cc2OC)[C@H]1c1ccccc1` (relative stereo) [Example 3F]: 82%, -31% and 0%.
The matching figures for `COc1ccc(N2C(=O)[C@H](CCCc3ccccc3)[C@@H]2c2cccc(OC(F)(F)F)c2)cc1` (relative stereo) [Example 1BK]: 55%, 0% and 0%.
The matching figures for `COc1ccc(N2C(=O)[C@H](CCCc3ccccc3)[C@H]2c2ccc(C)cc2)cc1` (relative stereo) [Example 5R]: 18%, -21% and -20%.
As to `COc1ccc(C=C[C@H]2[C@H](CCCc3ccccc3)C(=O)N2c2ccc(OC)cc2)cc1` (relative stereo) [Example 1M], the inhibition at 10 µM in assay [1] (setting [3]) came out at 80%. For the same compound, the IC50 in assay [1] (setting [6]) came out at 7 µM. Moreover, the change in vivo at 25 mg/kg in assay [2] (setting [4]) was -31%; in assay [2] (setting [5]), -11%.
